Measurements published in US20250171463A1 (BIOGEN MA INC., priority 2022, published 2025).

Target: T1, EBP (Homo sapiens, UniProt Q15125)
T1 construct: HEK293T cells were utilized as the source of EBP enzyme; endogenous in cells; host or cells: HEK293T
Experiment: EBP Functional Assay (EBP immunoaffinity LC-MS assay)
Format: biochemical
Settings: EBP enzyme from HEK293T cells; 30 min with inhibitor, then zymosterol-d5, 37° C., 4 h; percent conversion to dehydrolathosterol-d5 by LC-APCI MRM MS
In short: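 HEK293T cells served as EBP source; enzyme preincubated 30 min with inhibitor dilutions, then zymosterol-d5 substrate added and incubated 4 h at 37° C. Sterols extracted and quantified by LC-APCI MRM MS; percent conversion to […] fit to 4-parameter logistic for IC50. Tasin-1 reference inhibitor.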

T1 sequence (Q15125 whole entry): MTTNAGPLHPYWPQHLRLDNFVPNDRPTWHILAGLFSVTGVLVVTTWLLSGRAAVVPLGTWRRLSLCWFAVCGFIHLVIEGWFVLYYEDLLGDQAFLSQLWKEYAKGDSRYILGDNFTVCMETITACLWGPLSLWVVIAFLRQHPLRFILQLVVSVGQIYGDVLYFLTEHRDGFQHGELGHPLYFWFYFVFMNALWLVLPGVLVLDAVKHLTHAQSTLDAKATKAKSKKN

Row | IC50 | SMILES
1 | 100 to 250 nM | Cc1nc(C(F)(F)F)ccc1S(=O)(=O)N1CC2(CN(CC3(C)CCCO3)C2)C1 (centres unmarked) [Example 134]
2 | 100 to 250 nM | Cc1nc(C(F)(F)F)ccc1S(=O)(=O)N1CC2(CN(CC3CCCOC3)C2)C1 (centres unmarked) [Example 136]
3 | < 100 nM | Cc1nc(C(F)(F)F)ccc1S(=O)(=O)N1CC2(CN(C(C)C3CCCOC3)C2)C1 (centres unmarked) [Example 137]
4 | 250 to 4000 nM | Cc1nc(C(F)(F)F)ccc1S(=O)(=O)N1CC2(CN(CC3CCCO3)C2)C1 (centres unmarked) [Example 139]
5 | 250 to 4000 nM | Cc1nc(C(F)(F)F)ccc1S(=O)(=O)N1CC2(CN(C3CCOC3)C2)C1 (centres unmarked) [Example 140]
6 | < 100 nM | Cc1nc(C(F)(F)F)ccc1S(=O)(=O)N1CC2(CN(CC3(C)COC3)C2)C1 [Example 141]
7 | < 100 nM | Cc1nc(C(F)(F)F)ccc1S(=O)(=O)N1CC2(CN(C3CCOCC3(C)C)C2)C1 (centres unmarked) [Example 142]
8 | < 100 nM | Cc1nc(C(F)(F)F)ccc1S(=O)(=O)N1CC2(CN(C3CCOCC3C)C2)C1 (centres unmarked) [Example 145]
9 | < 100 nM | Cc1nc(C(F)(F)F)ccc1S(=O)(=O)N1CC2(CN(C3CCC(F)(F)CC3)C2)C1 [Example 150]
10 | 250 to 4000 nM | Cc1nc(C(F)(F)F)ccc1S(=O)(=O)N1CC2(CN(C3CCCOC3)C2)C1 (centres unmarked) [Example 151]
11 | < 100 nM | Cc1nc(C(F)(F)F)ccc1S(=O)(=O)N1CC2(CN(CC3CCOCC3)C2)C1 [Example 152]
12 | 100 to 250 nM | Cc1nc(C(F)(F)F)ccc1S(=O)(=O)N1CC2(CN(CC3COC3)C2)C1 [Example 154]
13 | 250 to 4000 nM | O=S(=O)(c1cccnc1C(F)(F)F)N1CC2(CN(C3CCOCC3)C2)C1 [Example 162, 2-(tetrahydro-2H-pyran-4-yl)-6-((2-(trifluoromethyl)pyridin-3-yl)sulfonyl)-2,6-diazaspiro[3.3]heptane]
14 | < 100 nM | Cc1nc(C2CC2(F)F)ccc1S(=O)(=O)N1CC2(CN(C3CCOCC3)C2)C1 (centres unmarked) [Example 163, 2-((6-(2,2-difluorocyclopropyl)-2-methylpyridin-3-yl)sulfonyl)-6-(tetrahydro-2H-pyran-4-yl)-2,6-diazaspiro[3.3]heptane]
15 | 250 to 4000 nM | Cc1ncccc1S(=O)(=O)N1CC2(CN(C3CCOCC3)C2)C1 [Example 164, 2-((2-methylpyridin-3-yl)sulfonyl)-6-(tetrahydro-2H-pyran-4-yl)-2,6-diazaspiro[3.3]heptane]
16 | 250 to 4000 nM | O=S(=O)(c1cnc(Cl)c(C(F)(F)F)c1)N1CC2(CN(C3CCOCC3)C2)C1 [Example 165, 2-((6-chloro-5-(trifluoromethyl)pyridin-3-yl)sulfonyl)-6-(tetrahydro-2H-pyran-4-yl)-2,6-diazaspiro[3.3]heptane]
17 | 100 to 250 nM | Cn1nc(C(C)(F)F)cc1S(=O)(=O)N1CC2(CN(C3CCOCC3)C2)C1 [Example 166, 2-((3-(1,1-difluoroethyl)-1-methyl-1H-pyrazol-5-yl)sulfonyl)-6-(tetrahydro-2H-pyran-4-yl)-2,6-diazaspiro[3.3]heptane]
18 | 250 to 4000 nM | COc1cc(C)c(S(=O)(=O)N2CC3(CN(C4CCOCC4)C3)C2)cn1 [Example 168, 2-((6-methoxy-4-methylpyridin-3-yl)sulfonyl)-6-(tetrahydro-2H-pyran-4-yl)-2,6-diazaspiro[3.3]heptane]
19 | 250 to 4000 nM | Cn1nc2c(c1S(=O)(=O)N1CC3(CN(C4CCOCC4)C3)C1)CCC2 [Example 169, 2-methyl-3-((6-(tetrahydro-2H-pyran-4-yl)-2,6-diazaspiro[3.3]heptan-2-yl)sulfonyl)-2,4,5,6-tetrahydrocyclopenta[c]pyrazole]
20 | 250 to 4000 nM | CCN1CC2(C1)CN(S(=O)(=O)c1ccc(C(F)(F)F)nc1C)C2 [Example 170]
21 | 250 to 4000 nM | Cc1nc(C(F)(F)F)ccc1S(=O)(=O)N1CC2(CN(CC3CC3C#N)C2)C1 (centres unmarked) [Example 171]
22 | 250 to 4000 nM | COCCOCCCN1CC2(C1)CN(S(=O)(=O)c1ccc(C(F)(F)F)nc1C)C2 [Example 172]
23 | < 100 nM | Cc1nc(C(F)(F)F)ccc1S(=O)(=O)N1CC2(CN(CCCOC3CCCC3)C2)C1 [Example 176]
24 | 250 to 4000 nM | COC(=O)C(C)(C)CCN1CC2(C1)CN(S(=O)(=O)c1ccc(C(F)(F)F)nc1C)C2 [Example 177]

Row | IC50 | SMILES
25 | 250 to 4000 nM | COC(CN1CC2(C1)CN(S(=O)(=O)c1ccc(C(F)(F)F)nc1C)C2)C1CC1 (centres unmarked) [Example 178]
26 | 100 to 250 nM | COCCCCCN1CC2(C1)CN(S(=O)(=O)c1ccc(C(F)(F)F)nc1C)C2 [Example 179]
27 | 100 to 250 nM | COC(C)CCCN1CC2(C1)CN(S(=O)(=O)c1ccc(C(F)(F)F)nc1C)C2 (centres unmarked) [Example 180]
28 | 100 to 250 nM | COCCC1(CN2CC3(C2)CN(S(=O)(=O)c2ccc(C(F)(F)F)nc2C)C3)CCC1 [Example 181]
29 | < 100 nM | CCSCCCN1CC2(C1)CN(S(=O)(=O)c1ccc(C(F)(F)F)nc1C)C2 [Example 183]
30 | < 100 nM | Cc1nc(C(F)(F)F)ccc1S(=O)(=O)N1CC2(CN(CCC3CC3)C2)C1 [Example 184]
31 | < 100 nM | Cc1nc(C(F)(F)F)ccc1S(=O)(=O)N1CC2(CN(CCOC(C)(C)C)C2)C1 [Example 185]
32 | 100 to 250 nM | Cc1nc(C(F)(F)F)ccc1S(=O)(=O)N1CC2(CN(CC3CCOC(C)(C)C3)C2)C1 (centres unmarked) [Example 186]
33 | 250 to 4000 nM | Cc1nc(C(F)(F)F)ccc1S(=O)(=O)N1CC2(CN(CC3(O)CCOCC3)C2)C1 [Example 187, 4-((6-((2-methyl-6-(trifluoromethyl)pyridin-3-yl)sulfonyl)-2,6-diazaspiro[3.3]heptan-2-yl)methyl)tetrahydro-2H-pyran-4-ol]
34 | < 100 nM | Cc1nc(C(F)(F)F)ccc1S(=O)(=O)N1CC2(CN(CC3(F)CCOCC3)C2)C1 [Example 188, 2-((4-fluorotetrahydro-2H-pyran-4-yl)methyl)-6-((2-methyl-6-(trifluoromethyl)pyridin-3-yl)sulfonyl)-2,6-diazaspiro[3.3]heptane]
35 | < 100 nM | CC(C)c1cc(S(=O)(=O)N2CC3(CN(C4CCOCC4)C3)C2)n(C)n1 [Example 189, 2-((3-isopropyl-1-methyl-1H-pyrazol-5-yl)sulfonyl)-6-(tetrahydro-2H-pyran-4-yl)-2,6-diazaspiro[3.3]heptane]
36 | < 100 nM | O=S(=O)(c1ccc(C(F)(F)F)nc1C1CC1)N1CC2(CN(CC3CCOCC3)C2)C1 [Example 190, 2-((2-cyclopropyl-6-(trifluoromethyl)pyridin-3-yl)sulfonyl)-6-((tetrahydro-2H-pyran-4-yl)methyl)-2,6-diazaspiro[3.3]heptane]
37 | < 100 nM | Cc1nc(C2(C(F)(F)F)CC2)ccc1S(=O)(=O)N1CC2(CN(CC3CCOCC3)C2)C1 [Example 191, 2-((2-methyl-6-(1-(trifluoromethyl)cyclopropyl)pyridin-3-yl)sulfonyl)-6-((tetrahydro-2H-pyran-4-yl)methyl)-2,6-diazaspiro[3.3]heptane]
38 | < 100 nM | O=S(=O)(c1ccc(C(F)(F)F)nc1Cl)N1CC2(CN(C3CCOCC3)C2)C1 [Example 192, 2-((2-chloro-6-(trifluoromethyl)pyridin-3-yl)sulfonyl)-6-(tetrahydro-2H-pyran-4-yl)-2,6-diazaspiro[3.3]heptane]
39 | < 100 nM | O=S(=O)(c1ccc(C(F)(F)F)nc1C1CC1)N1CC2(CN(C3CCOCC3)C2)C1 [Example 193, 2-((2-cyclopropyl-6-(trifluoromethyl)pyridin-3-yl)sulfonyl)-6-(tetrahydro-2H-pyran-4-yl)-2,6-diazaspiro[3.3]heptane]
40 | < 100 nM | Cc1cc(C(F)(F)F)ccc1S(=O)(=O)N1CC2(CN(CC3CCOCC3)C2)C1 [Example 194, 2-((2-methyl-4-(trifluoromethyl)phenyl)sulfonyl)-6-((tetrahydro-2H-pyran-4-yl)methyl)-2,6-diazaspiro[3.3]heptane]
41 | < 100 nM | CC1(O)CCC(N2CC3(C2)CN(S(=O)(=O)c2ccc(C(F)(F)F)nc2C2CC2)C3)CC1 (centres unmarked) [Example 195, 4-(6-((2-cyclopropyl-6-(trifluoromethyl)pyridin-3-yl)sulfonyl)-2,6-diazaspiro[3.3]heptan-2-yl)-1-methylcyclohexan-1-ol]
42 | 100 to 250 nM | CC1(O)CCC(N2CC3(C2)CN(S(=O)(=O)c2ccc(C(F)(F)F)nc2C2CC2)C3)CC1 (centres unmarked) [Example 196, 4-(6-((2-cyclopropyl-6-(trifluoromethyl)pyridin-3-yl)sulfonyl)-2,6-diazaspiro[3.3]heptan-2-yl)-1-methylcyclohexan-1-ol]
43 | 250 to 4000 nM | O=S(=O)(c1cccnc1C(F)(F)F)N1CC2(CN(CC3CCOCC3)C2)C1 [Example 201, 2-((tetrahydro-2H-pyran-4-yl)methyl)-6-((2-(trifluoromethyl)pyridin-3-yl)sulfonyl)-2,6-diazaspiro[3.3]heptane]
44 | < 100 nM | Cn1nc(C(F)(F)F)cc1S(=O)(=O)N1CC2(CN(CC3CCOCC3)C2)C1 [Example 202, 2-((1-methyl-3-(trifluoromethyl)-1H-pyrazol-5-yl)sulfonyl)-6-((tetrahydro-2H-pyran-4-yl)methyl)-2,6-diazaspiro[3.3]heptane]
45 | < 100 nM | C=Cc1nc(C(F)(F)F)ccc1S(=O)(=O)N1CC2(CN(C3CCOCC3)C2)C1 [Example 203, 2-(tetrahydro-2H-pyran-4-yl)-6-((6-(trifluoromethyl)-2-vinylpyridin-3-yl)sulfonyl)-2,6-diazaspiro[3.3]heptane]
46 | < 100 nM | CCc1nc(C(F)(F)F)ccc1S(=O)(=O)N1CC2(CN(C3CCOCC3)C2)C1 [Example 204, 2-((2-ethyl-6-(trifluoromethyl)pyridin-3-yl)sulfonyl)-6-(tetrahydro-2H-pyran-4-yl)-2,6-diazaspiro[3.3]heptane]
47 | < 100 nM | CCc1nc(C(F)F)ccc1S(=O)(=O)N1CC2(CN(C3CCOCC3)C2)C1 [Example 205, 2-((6-(difluoromethyl)-2-ethylpyridin-3-yl)sulfonyl)-6-(tetrahydro-2H-pyran-4-yl)-2,6-diazaspiro[3.3]heptane]
